Measurements from patent US20080319065A1, “Systemic and Intrathecal Effects of a Novel Series of Phospholipase A2 Inhibitors on Hyperalgesia and Spinal Pge2 Release” (The Regents of the University of California, priority 2005, published 2008).
“Also recorded” adds a separate entry of the source.

Experiments:
Format in all cases: biochemical
[1] = molecular target: T1, Group IVA cPLA2 (GIVA PLA2) (Homo sapiens, UniProt P47712); assay: In vitro Group IVA cPLA2 mixed micelle assay; conditions: for Inhibition of GIVA PLA2: at highest dose; for cPLA2 inh, XI(50): Table 3; for inhibition at 0.091 mole fraction: read-out: cPLA2 inh, percent inhibition (converted)
T1 sequence (P47712 1-749): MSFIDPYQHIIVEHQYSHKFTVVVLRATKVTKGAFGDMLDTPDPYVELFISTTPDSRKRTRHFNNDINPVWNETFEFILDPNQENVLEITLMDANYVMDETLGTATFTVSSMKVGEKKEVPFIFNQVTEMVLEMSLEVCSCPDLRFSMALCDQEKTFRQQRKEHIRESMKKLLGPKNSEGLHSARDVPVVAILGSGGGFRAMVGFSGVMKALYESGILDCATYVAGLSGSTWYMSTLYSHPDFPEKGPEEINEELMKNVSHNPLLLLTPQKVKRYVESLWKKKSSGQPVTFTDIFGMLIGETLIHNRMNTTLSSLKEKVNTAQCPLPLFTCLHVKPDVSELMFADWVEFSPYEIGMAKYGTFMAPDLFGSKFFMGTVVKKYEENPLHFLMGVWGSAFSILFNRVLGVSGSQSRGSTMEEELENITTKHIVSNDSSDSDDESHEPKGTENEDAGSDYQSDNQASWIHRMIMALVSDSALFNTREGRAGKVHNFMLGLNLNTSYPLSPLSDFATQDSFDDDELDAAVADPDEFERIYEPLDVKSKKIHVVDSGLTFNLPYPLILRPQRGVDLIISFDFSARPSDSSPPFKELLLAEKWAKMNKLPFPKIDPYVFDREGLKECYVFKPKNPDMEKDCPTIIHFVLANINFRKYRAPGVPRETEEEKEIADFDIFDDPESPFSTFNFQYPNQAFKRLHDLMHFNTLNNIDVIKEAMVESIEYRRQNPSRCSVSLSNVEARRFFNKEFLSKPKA
Experimental: (§1) Numerous 2-oxoamides were tested for inhibition of PLA2s in in vitro assay systems. The data, summarized in Tables 1a, 1b and 2 are represented as XI(50) values unless otherwise noted. XI(50) is defined as the inhibitor concentration that produced 50% inhibition. XI(50) is used as opposed to the more common IC50 because GIVA and GVIA PLA2 are active at a two-dimensional lipid interface rather than in three-dimensional solution. (Deems, Anal. Biochem., 287:1-16, 2000). The 2-oxoamide inhibitors likely partition to the micelle interface and therefore must be represented as a percentage of surface concentration (mole fraction) as opposed to bulk concentration (molar units). (Kokotos, et al., J. Med. Chem., 45:2891-2893, 2002).
(§2) In vitro Group IV cPLA2 and Group VI iPLA2 assays were done as previously described (Kokotos, et al., supra, 2002). Briefly, 100 μM lipid substrate and 100,000 cpm radiolabeled analog were dried down under N2 and dissolved in assay buffer containing 400 μM Triton X-100 to yield a mixed micelle substrate solution. Inhibitors dissolved in DMSO were added to the reaction tubes and allowed to incubate with substrate for five minutes at 40° C. Pure enzyme was added to yield a final volume of 500 μl, and digestion was carried out at 40° C. for 30 minutes. Reactions were quenched and extracted using the Dole method and products were quantified by liquid scintillation counting. Percent inhibition was determined at a range of inhibitor mole fraction concentrations for XI(50) calculations.

[2] = molecular target: T2, Group VIA iPLA2 (GVIA PLA2) (Homo sapiens, UniProt O60733); assay: In vitro Group VIA iPLA2 mixed micelle assay; conditions: for Inhibition of GVIA PLA2: at highest dose; for iPLA2 inh, XI(50): Table 3; for inhibition at 0.091 mole fraction: read-out: iPLA2 inh, percent inhibition
T2 sequence (O60733 1-806): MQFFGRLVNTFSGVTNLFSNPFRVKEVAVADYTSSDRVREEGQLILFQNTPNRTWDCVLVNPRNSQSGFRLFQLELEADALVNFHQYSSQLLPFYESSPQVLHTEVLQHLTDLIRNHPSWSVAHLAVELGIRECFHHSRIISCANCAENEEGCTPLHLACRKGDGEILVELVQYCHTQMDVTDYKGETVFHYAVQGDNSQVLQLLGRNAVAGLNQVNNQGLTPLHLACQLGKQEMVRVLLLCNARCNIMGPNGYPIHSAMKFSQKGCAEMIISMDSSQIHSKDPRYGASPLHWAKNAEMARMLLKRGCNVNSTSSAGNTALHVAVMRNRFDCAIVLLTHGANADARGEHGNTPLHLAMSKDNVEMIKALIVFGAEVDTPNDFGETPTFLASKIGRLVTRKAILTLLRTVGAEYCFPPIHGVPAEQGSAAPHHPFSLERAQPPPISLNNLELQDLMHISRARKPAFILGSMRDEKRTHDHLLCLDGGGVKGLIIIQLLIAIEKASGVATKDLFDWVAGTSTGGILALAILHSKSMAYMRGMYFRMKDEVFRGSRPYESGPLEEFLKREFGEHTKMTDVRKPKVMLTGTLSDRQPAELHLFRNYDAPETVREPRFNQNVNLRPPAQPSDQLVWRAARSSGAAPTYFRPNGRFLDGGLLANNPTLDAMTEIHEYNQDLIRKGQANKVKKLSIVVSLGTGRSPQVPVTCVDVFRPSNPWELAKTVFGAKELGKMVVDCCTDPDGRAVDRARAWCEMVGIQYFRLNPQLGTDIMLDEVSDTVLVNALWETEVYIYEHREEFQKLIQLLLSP
Experimental: as §1, §2

GV sPLA2 = molecular target: T3, GV sPLA2 (Homo sapiens, UniProt P39877); assay: GV sPLA2 activity assay; conditions: for efficacy against sPLA2: at 0.091 mole fraction; for inhibition at 0.091 mole fraction: read-out: sPLA2 inh., percent inhibition
T3 sequence (P39877 21-138): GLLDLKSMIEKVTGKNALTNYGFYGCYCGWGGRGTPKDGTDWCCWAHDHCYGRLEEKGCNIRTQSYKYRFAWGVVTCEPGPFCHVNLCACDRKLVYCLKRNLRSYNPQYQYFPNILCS
Experimental: GV sPLA2 activity was measured in a similar assay. The final assay buffer was composed of 50 mM Tris-HCl (pH 8.0) and 5 mM CaCl2. Each assay was performed in 500 μL total volume made up of 100 μL of 5× substrate solution (20 μL of 10 mM Triton X-100 and 80 μL assay buffer), 390 μL assay buffer, 10 μL GV sPLA2 solution (1 μL of 40 ng/μL stock and 9 μL assay buffer), and 5 μL of DMSO or 2-oxoamide in DMSO. The 5× substrate solution was prepared by drying down the phospholipids (in organic solvent) with N2. The appropriate volume of 10 mM Triton X-100 was added, heated and vortexed until clear. Then assay buffer was added to make a 5× substrate solution. The final mixed micelles were at 400 μM Triton X-100 and 100 μM DPPC (of which 100,000 cpm of ^14C-DPPC).

| Compound | inhibition at 0.091 mole fraction (GV sPLA2) | inhibition at 0.091 mole fraction [1] | inhibition at 0.091 mole fraction [2] | also measured |
| --- | --- | --- | --- | --- |
| CCC(=O)C(N)=O [AX001] | – | – | – | inhibition of GIVA PLA2 (cPLA2), in words [1]: neither exhibits significant inhibition; Inhibition of GIVA PLA2 [1]: ND (negligible inhibition (0-25%) at highest dose); inhibition of GVIA PLA2 (iPLA2), in words [2]: neither exhibits significant inhibition; Inhibition of GVIA PLA2 [2]: ND^a (negligible inhibition (0-25%) at highest dose) |
| CCNC(=O)C(=O)CC [AX002] | – | – | – | inhibition of GIVA PLA2 (cPLA2), in words [1]: no detectable inhibition of GIVA PLA2; Inhibition of GIVA PLA2 [1]: ND (negligible inhibition (0-25%) at highest dose); inhibition of GVIA PLA2 (iPLA2), in words [2]: limited inhibition of GVIA PLA2; Inhibition of GVIA PLA2 [2]: LD^b (limited inhibition (25-50%) at highest dose) |
| CCNC(=O)C(=O)CC [AX009] | – | – | – | inhibition of GIVA PLA2 (cPLA2), in words [1]: no detectable inhibition of GIVA PLA2; Inhibition of GIVA PLA2 [1]: ND (negligible inhibition (0-25%) at highest dose); inhibition of GVIA PLA2 (iPLA2), in words [2]: limited inhibition of GVIA PLA2; Inhibition of GVIA PLA2 [2]: LD (limited inhibition (25-50%) at highest dose) |
| NC(=O)C(=O)CCCCc1ccccc1 [AX015] | – | – | – | inhibition of GIVA PLA2 (cPLA2), in words [1]: neither exhibits significant inhibition; also recorded: no significant activity; Inhibition of GIVA PLA2 [1]: ND (negligible inhibition (0-25%) at highest dose); inhibition of GVIA PLA2 (iPLA2), in words [2]: neither exhibits significant inhibition; also recorded: no significant activity; Inhibition of GVIA PLA2 [2]: ND (negligible inhibition (0-25%) at highest dose); efficacy against sPLA2 (GV sPLA2): 45.3% |
| CC/C=C\CC(=O)C(=O)NCCCC(=O)OC(C)(C)C [AX055] | 85.3% | – | – | cPLA2 inh, XI(50) [1]: XI(50) =0.014 ± .009 mole fraction; iPLA2 inh, XI(50) [2]: XI(50) =0.054 ± .004 mole fraction |
| CCC[C@@H](CCCCC(=O)OCC)NC(=O)C(=O)CC [AX065] | 23.2% | 61.8% | – | iPLA2 inh, XI(50) [2]: XI(50) =0.054 ± .016 mole fraction |
| CCOCCCCNC(=O)C(=O)CC [AX081] | 76.5% | – | 50.9% | cPLA2 inh, XI(50) [1]: XI(50) =0.018 ± .016 mole fraction |
| CCCCC(=O)CCCNC(=O)C(=O)CC [AX082] | 7.4% | 31.8% | – | – |
| CCOC(=O)CCCNC(=O)C(=O)CCc1ccc(OCC)cc1 [AX090] | 51.7% | – | 67.3% | cPLA2 inh, XI(50) [1]: XI(50) =0.050 ± .002 mole fraction |
| CCOC(=O)c1ccc(NC(=O)C(=O)CC)cc1 [AX091] | 66.5% | – | 14.3% | cPLA2 inh, XI(50) [1]: XI(50) =0.029 ± .016 mole fraction |
| CCC[C@@H](/C=C/C(=O)OCC)NC(=O)C(=O)CC [AX093] | 78.3% | – | 66.5% | cPLA2 inh, XI(50) [1]: XI(50) =0.031 ± .011 mole fraction |
| CCOC(=O)CCCCNC(=O)C(=O)CC [AX102] | 47.1% | 30.6% | 35.3% | – |
| CCOC(=O)CCNC(=O)C(=O)CC [AX104] | 58.8% | 44% | 50.6% | – |
| CCC(=O)C(=O)NCCCCC(=O)OC(C)(C)C [AX105] | 96.3% | 73.8% | 61.7% | – |
| CC/C=C\CC(=O)C(=O)NCCCC(=O)OCC [AX110] | 96.6% | 69.9% | 52.8% | – |
| CCC(=O)C(=O)NCC(=O)OC(C)(C)C [AX111] | 95.9% | 79.6% | 53.1% | – |
| CCC(=O)C(=O)NCCC(=O)OC(C)(C)C [AX113] | 100% | 79.2% | 54% | efficacy against sPLA2 (GV sPLA2): about 100% |
| CCOC(=O)CNC(=O)C(=O)CC [AX114] | 99.8% | 73.7% | 61.6% | – |
| CCC(=O)C(=O)NCCCC(=O)OCc1ccccc1 [AX116] | 57.5% | 34.8% | 10.7% | – |
